According to patent US20260250270A1, “Compound Used as Kinase Inhibitor and Use Thereof” (TYK MEDICINES, INC., priority 2022, published 2026):
pIC50: −log10 of the molar value.

Experiments:
[1] = test system: PC9; assay: Cell proliferation inhibition (CellTiter-Glo) on cell line PC9; type: cell-based; conditions: Homo sapiens, PC-9
Protocol: (§1) The cell lines NCI-H1975 and PC9 selected for the experiments were provided by Sino-American Guanke Biotechnology (Beijing) Co. and were validated prior to use in this study.
(§2) A 10× stock of the compound to be tested was prepared for use, with 9 concentrations in 4-fold gradient dilution, diluted from 10 μM.
(§3) The logarithmic growth phase cell suspension was inoculated into a 96-well culture plate with 90 μL volume per well (2000 cells/well). 10 μL of 10× Compound to be tested was added to the plate according to the plate spreading diagram, and then mixed well. The plate was incubated in a 5% CO2 incubator at 37° C. The proliferation inhibitory activity of the compound was determined by the CellTiter-Glo method. Cell proliferation inhibition rate (Inhibition Rate) data were plotted using GraphPad Prism 8.0 software for cell viability curves and IC50 values were calculated.

[2] = test system: exon 20 insertion mutations in EGFR and HER2; conditions: reported clinical trial results; cited from earlier work
[3] = target: Ba/F3-FL-EGFR-H773-V774 ins NPH (Homo sapiens, UniProt P00533, DUP771-773, cells depend on it); assay: Cell proliferation inhibition (CellTiter-Glo), EGFR exon 20 insertion engineered cells; type: cell-based; conditions: 72 h, read-out: IC50, Ba/F3-FL-EGFR H773-V774ins NPH
Protocol: (§4) The selected engineering cells Ba/F3-FL-EGFR-V769-D770 ins ASV, Ba/F3-FL-EGFR-D770-N771 ins SVD, Ba/F3-FL-EGFR-H773-V774 ins NPH, Ba/F3-FL-EGFR-A763-Y764 ins FQEA, Ba/F3-HER2-A775-G776 ins YVMA were provided by Hefei PreceDo Biomedical Technology Co., LTD and were validated prior to use in this study.
(§5) A 20× stock of the compound to be tested was prepared for use, with 9 concentrations in 3-fold gradient dilution, diluted from 1 μM.
(§6) The logarithmic growth phase cell suspension was inoculated into 96-well white cell culture plates with 95 μL volume per well (2000 cells/well). 5 μL of 20× Compound to be tested was added to the plate containing 95 μL of cell suspension according to the plate spreading diagram, and then mixed well. The plate was incubated in a 5% CO2 incubator at 37° C. for 72 h. The proliferation inhibition activity of the compounds was determined by the CellTiter-Glo method, and the fluorescence value per well, RLU, was obtained from the SpectraMax Paradigm reading. Inhibition Rate data were processed using the following formula: Inhibition Rate (Inh %)=100−(RLU compound−RLU blank)/(RLU control−RLU blank)*100%. The cell viability corresponding to different concentrations of compounds was calculated in EXCEL, and then GraphPad Prism software was used to plot the cell viability curve and calculate the IC50 value.

[4] = target: Ba/F3-FL-EGFR-D770-N771 ins SVD (Homo sapiens, UniProt P00533, DUP768-770, cells depend on it); assay: as above; type: cell-based; conditions: 72 h, read-out: IC50, Ba/F3-FL-EGFR D770-N771ins SVD
Protocol: as §4, §5, §6

[5] = target: Ba/F3-FL-EGFR-V769-D770 ins ASV (Homo sapiens, UniProt P00533, DUP767-769, cells depend on it); assay: as above; type: cell-based; conditions: 72 h, read-out: IC50, Ba/F3-FL-EGFR V769-D770ins ASV
Protocol: as §4, §5, §6

[6] = target: Ba/F3-FL-EGFR-A763-Y764 ins FQEA (Homo sapiens, UniProt P00533, INS763FQEA, cells depend on it); assay: as above; type: cell-based; conditions: 72 h, read-out: IC50, Ba/F3-FL-EGFR A763-Y764ins FQEA
Protocol: as §4, §5, §6

[7] = test system: NCI-H1975; assay: Cell proliferation inhibition (CellTiter-Glo) on cell line NCI-H1975; type: cell-based; conditions: Homo sapiens
Protocol: as §1, §2, §3

[8] = target: Ba/F3-HER2-A775-G776 ins YVMA (Homo sapiens, UniProt P04626, DUP772-775, cells depend on it); assay: Cell proliferation inhibition (CellTiter-Glo), HER2 exon 20 insertion engineered cells; type: cell-based; conditions: 72 h, CellTiter-Glo; read-out: IC50, Ba/F3-HER2-A775-G776ins YVMA
Protocol: as §4, §5, §6

[9] = test system: Lung cancer LU0387PDX model; assay: Pharmacodynamic study on lung cancer LU0387PDX model; type: in vivo, mice; conditions: LU0387 model, 30 mg/kg, P.O, QD * 13 days
Text: Lung cancer LU0387PDX model is a commonly used xenograft tumor model from Crown Bioscience, the experimental situation of this model is described as follows: after euthanasia of tumor-bearing mice, the tumor blocks were dissected out in aseptic condition, the blocks were cleaned to remove blood stains and connective tissues and necrotic parts, and the tumors were cut into small pieces of 2*2*2 mm^3, and inoculated with an adapter needle in sterilized experimental mice subcutaneously on the right dorsal side. Tumor growth was regularly observed, and when the tumors grew to an average volume of 100~200 mm^3, mice were randomly grouped according to tumor size and body weight for drug administration. Before the start of drug administration, all animals were weighed and the tumor volume was measured with vernier calipers. Mice were randomly grouped according to tumor volume to ensure that tumor volumes were similar between groups. Three mice in each group were administered orally once daily, and the inoculation site was observed after administration. Tumor volume and mouse body weight were measured twice a week. The experimental design and results were shown in Table 9, wherein P.O referred to administered orally; QD: once a day; TGI (Tumor volume inhibition rate)=(1-Tumor weight of the treatment group/Tumor weight of the control group)*100%.

[10] = test system: EGFR exon 20ins; conditions: advanced non-small cell lung cancer; cited from earlier work

Ba/F3-FL-EGFR-D770-N771 ins SVD, sequence (P00533 with tags, fused parts or gaps DUP768-770): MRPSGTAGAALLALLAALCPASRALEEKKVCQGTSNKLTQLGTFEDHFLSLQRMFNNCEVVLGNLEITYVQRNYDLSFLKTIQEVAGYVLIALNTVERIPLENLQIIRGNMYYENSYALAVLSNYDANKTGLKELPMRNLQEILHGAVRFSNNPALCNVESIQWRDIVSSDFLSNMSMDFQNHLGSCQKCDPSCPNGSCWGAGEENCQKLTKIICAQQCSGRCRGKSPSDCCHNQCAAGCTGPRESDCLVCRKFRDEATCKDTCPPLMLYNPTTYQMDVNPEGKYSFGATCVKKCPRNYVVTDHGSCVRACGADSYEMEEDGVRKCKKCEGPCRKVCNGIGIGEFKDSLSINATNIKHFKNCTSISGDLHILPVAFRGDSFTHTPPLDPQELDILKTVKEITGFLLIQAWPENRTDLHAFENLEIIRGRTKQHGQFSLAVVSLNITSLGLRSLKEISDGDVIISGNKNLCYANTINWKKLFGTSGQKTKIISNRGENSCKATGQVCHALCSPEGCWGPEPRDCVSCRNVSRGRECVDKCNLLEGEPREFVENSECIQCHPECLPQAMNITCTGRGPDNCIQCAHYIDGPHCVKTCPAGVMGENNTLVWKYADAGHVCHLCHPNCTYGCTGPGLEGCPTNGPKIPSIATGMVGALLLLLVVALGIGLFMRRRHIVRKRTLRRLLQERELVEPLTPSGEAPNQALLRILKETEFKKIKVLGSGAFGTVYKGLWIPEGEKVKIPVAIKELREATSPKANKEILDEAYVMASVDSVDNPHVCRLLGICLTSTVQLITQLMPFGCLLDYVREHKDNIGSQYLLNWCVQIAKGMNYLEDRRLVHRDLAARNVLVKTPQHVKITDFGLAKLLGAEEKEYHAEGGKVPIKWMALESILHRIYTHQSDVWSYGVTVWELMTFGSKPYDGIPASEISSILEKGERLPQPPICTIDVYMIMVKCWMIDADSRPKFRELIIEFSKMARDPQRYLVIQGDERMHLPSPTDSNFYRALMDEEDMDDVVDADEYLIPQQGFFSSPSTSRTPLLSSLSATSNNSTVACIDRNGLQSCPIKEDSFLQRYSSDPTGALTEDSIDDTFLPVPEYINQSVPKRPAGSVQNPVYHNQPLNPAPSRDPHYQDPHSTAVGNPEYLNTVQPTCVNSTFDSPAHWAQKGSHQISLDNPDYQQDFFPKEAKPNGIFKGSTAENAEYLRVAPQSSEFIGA
Ba/F3-FL-EGFR-A763-Y764 ins FQEA, sequence (P00533 with tags, fused parts or gaps INS763FQEA): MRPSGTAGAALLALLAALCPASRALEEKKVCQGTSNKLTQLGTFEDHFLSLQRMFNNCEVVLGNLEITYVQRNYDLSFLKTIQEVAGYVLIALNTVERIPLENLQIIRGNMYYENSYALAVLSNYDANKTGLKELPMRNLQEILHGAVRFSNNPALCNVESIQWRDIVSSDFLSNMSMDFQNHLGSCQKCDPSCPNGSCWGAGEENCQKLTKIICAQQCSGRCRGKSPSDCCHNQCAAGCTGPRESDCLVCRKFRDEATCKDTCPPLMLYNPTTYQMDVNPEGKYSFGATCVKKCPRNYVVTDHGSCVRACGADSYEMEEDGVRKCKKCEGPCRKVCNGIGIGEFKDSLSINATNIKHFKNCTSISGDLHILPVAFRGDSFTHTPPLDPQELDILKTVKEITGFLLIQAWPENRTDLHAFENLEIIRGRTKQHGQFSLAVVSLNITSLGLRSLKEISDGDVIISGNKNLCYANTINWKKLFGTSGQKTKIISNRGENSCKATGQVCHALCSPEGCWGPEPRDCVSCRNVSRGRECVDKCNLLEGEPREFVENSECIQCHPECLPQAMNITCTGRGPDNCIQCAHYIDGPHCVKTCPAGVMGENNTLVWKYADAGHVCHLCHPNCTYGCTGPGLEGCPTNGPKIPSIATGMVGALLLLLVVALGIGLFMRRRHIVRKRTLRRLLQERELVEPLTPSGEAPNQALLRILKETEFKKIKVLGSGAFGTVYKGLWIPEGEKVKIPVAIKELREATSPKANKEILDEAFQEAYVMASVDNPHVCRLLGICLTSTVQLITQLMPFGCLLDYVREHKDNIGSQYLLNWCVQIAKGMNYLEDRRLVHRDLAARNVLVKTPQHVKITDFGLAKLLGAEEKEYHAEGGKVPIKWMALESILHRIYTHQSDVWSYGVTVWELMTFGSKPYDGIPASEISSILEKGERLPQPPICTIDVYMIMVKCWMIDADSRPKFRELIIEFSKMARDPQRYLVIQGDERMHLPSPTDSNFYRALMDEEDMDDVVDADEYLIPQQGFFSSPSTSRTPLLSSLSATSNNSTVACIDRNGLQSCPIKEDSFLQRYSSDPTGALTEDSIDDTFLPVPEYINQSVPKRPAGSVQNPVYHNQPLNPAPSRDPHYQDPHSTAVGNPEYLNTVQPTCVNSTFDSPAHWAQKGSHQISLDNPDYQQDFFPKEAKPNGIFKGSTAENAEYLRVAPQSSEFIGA
Ba/F3-FL-EGFR-H773-V774 ins NPH, sequence (P00533 with tags, fused parts or gaps DUP771-773): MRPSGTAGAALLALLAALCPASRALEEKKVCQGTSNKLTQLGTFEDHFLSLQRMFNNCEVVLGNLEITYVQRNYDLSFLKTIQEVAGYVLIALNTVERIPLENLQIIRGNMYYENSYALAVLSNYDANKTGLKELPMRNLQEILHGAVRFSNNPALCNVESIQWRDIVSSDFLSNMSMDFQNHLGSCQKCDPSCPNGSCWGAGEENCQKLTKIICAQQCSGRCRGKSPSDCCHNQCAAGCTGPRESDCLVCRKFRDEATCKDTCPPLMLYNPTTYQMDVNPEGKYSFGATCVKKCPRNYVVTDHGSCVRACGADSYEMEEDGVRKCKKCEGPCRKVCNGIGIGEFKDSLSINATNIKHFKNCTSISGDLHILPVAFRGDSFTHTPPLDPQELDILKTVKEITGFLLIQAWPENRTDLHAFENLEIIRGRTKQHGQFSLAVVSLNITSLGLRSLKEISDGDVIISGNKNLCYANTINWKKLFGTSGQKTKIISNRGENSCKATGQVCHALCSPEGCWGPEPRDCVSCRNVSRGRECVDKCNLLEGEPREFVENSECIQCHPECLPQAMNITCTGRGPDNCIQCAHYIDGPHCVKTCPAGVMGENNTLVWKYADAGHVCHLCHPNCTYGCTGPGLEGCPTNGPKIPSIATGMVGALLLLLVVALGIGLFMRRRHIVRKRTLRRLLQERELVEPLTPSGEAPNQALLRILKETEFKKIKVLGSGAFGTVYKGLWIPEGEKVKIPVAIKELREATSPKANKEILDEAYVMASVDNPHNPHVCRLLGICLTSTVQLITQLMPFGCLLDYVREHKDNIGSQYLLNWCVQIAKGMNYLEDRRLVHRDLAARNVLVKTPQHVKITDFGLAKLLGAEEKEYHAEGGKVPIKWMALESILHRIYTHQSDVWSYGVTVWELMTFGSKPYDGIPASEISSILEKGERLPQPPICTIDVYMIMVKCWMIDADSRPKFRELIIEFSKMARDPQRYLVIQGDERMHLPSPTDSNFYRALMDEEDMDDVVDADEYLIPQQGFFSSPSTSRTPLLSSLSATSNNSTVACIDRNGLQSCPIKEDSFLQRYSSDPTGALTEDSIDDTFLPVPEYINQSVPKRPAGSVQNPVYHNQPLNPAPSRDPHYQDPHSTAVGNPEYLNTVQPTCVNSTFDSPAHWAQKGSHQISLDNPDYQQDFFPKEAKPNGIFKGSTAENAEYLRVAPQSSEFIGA
Ba/F3-FL-EGFR-V769-D770 ins ASV, sequence (P00533 with tags, fused parts or gaps DUP767-769): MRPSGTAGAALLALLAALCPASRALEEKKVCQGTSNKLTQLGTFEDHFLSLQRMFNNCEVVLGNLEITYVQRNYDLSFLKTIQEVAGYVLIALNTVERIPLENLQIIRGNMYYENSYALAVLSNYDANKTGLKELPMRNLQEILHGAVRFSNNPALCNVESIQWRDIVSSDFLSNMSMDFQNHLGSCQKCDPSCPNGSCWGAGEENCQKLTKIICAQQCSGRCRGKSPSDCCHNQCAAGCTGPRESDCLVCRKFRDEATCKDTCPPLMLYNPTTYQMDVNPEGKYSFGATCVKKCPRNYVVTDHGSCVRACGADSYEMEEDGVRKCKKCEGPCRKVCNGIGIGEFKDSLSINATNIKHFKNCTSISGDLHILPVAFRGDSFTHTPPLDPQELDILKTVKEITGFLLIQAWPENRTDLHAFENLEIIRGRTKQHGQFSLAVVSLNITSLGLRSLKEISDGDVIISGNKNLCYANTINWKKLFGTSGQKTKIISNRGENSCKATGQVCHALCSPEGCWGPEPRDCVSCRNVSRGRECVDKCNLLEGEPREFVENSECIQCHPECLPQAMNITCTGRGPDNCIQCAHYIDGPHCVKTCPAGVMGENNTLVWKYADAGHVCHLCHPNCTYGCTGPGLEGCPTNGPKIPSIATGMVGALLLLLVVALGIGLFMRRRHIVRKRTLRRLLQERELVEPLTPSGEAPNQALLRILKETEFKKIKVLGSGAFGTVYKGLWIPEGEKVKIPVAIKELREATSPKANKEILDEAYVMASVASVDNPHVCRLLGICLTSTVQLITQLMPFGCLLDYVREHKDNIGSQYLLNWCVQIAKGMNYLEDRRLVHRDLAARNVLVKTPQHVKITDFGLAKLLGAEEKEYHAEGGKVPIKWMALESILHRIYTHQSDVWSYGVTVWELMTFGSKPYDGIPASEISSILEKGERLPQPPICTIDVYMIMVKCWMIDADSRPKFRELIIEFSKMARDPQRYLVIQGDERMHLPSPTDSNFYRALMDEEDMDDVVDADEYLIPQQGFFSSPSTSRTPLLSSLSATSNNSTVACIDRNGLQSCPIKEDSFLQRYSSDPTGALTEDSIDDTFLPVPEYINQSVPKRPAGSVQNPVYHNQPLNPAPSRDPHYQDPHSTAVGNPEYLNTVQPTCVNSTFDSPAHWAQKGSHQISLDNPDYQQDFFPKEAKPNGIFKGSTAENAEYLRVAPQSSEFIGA

pIC50 [1]	GI50 [3]	GI50 [4]	GI50 [5]	GI50 [6]	pIC50 [7]	GI50 [8]	SMILES	objective remission rate [2]	TGI (%) [9]	objective remission rate [10]
≥ 7.52	≤ 30 nM	≤ 30 nM	≤ 30 nM	≤ 30 nM	≥ 7.52	≤ 30 nM	C=CC(=O)Nc1cc(Nc2ncc(C(=O)OC(C)C)c(-c3cn(C)c4ccccc34)n2)c(OC)cc1N(C)CCN(C)C [TAK-788, reference compound]	43%	68.03%	–
7.00 to 7.52	30 to 100 nM	30 to 100 nM	≤ 30 nM	≤ 30 nM	≥ 7.52	30 to 100 nM	C=CC(=O)Nc1cc(Nc2nccc(Nc3cc(Cl)c(F)cc3C(C)(C)O)n2)c(OC)cc1N1CC[C@@H](N(C)C)C1 [DZD9008, reference compound]	–	32.55%	40%
